Source: BindingDB's records for doi:10.1016/j.chembiol.2007.09.006 (University of Virginia At Charlottesville, 2007)

Target: T1, Core-binding factor subunit beta (Homo sapiens, UniProt Q13951)
T1 sequence (Q13951 whole entry): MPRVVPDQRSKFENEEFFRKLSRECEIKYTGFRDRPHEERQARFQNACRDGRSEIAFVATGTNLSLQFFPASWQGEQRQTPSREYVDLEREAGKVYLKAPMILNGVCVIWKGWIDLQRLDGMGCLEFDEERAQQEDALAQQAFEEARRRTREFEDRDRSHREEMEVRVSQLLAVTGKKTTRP
Test: FRET Assay
Conditions: pH 7.5; 23 °C
Procedure: Protein concentrations were determined by UV absorption at 433 nm for Cerulean-Runt and 513 nm for Venus-CBFbeta. […] Mean values of IC50 originating from two independent measurements performed in duplicate together with the standard deviations are reported.

Compound	IC50 [µM]
COc1ccc(-c2csc(N)n2)cc1 [thiazol-2-amine, 6]	18.5
COc1ccc(-c2csc(N)n2)cc1OC [thiazol-2-amine, 7]	40.5
Cc1cccc(-c2csc(N)n2)c1 [thiazol-2-amine, 10]	110
COc1cccc(-c2csc(N)n2)c1 [thiazol-2-amine, 11]	61
Nc1nc(-c2ccc(Cl)cc2Cl)cs1 [thiazol-2-amine, 16]	49
CCCc1sc(N)nc1-c1ccc(OC)cc1 [thiazol-2-amine, 18]	23.5
CCc1sc(N)nc1-c1cccc(C)c1 [thiazol-2-amine, 19]	66
CCOc1ccc(-c2nc(N)sc2CC)cc1 [thiazol-2-amine, 21]	> 500

These reach a lower IC50. Values come first.

IC50 [µM]	Compound
9	Nc1nc(-c2ccc(C(F)(F)F)cc2)cs1 [thiazol-2-amine, 5]
9	Nc1nc(-c2ccc3c(c2)OCO3)cs1 [thiazol-2-amine, 8]
12	Nc1nc(-c2cccc(Cl)c2)cs1 [thiazol-2-amine, 9]
5	Cc1ccccc1-c1csc(N)n1 [thiazol-2-amine, 13]
1.1	Nc1nc(-c2ccccc2Cl)cs1 [thiazol-2-amine, 14]
3.2	CCc1sc(N)nc1-c1ccc(OC)cc1 [thiazol-2-amine, 17]
17	CCc1sc(N)nc1-c1ccccc1OC [thiazol-2-amine, 20]
